Drawing on patent publication US20200317716A1, “PREPARATION OF BILE ACIDS AND INTERMEDIATES THEREOF” (ALLERGAN SALES, LLC, priority 2008, published 2020), this text covers melting point and cell survival for 8 compounds.

System in one data set: not given
Assay: not given
Conditions: not given
On to `COC(=O)/C=C/[C@@H](C)C1=CC[C@H]2[C@@H]3CC[C@@H]4C[C@H](OC(C)=O)CC[C@]4(C)C3=CC[C@]12C`, for which the melting point (as a rule, the temperature, or range, at which the solid turns liquid) was in the range of 114 to 116 °C.

As to `COC(=O)CC[C@@H](C)[C@H]1CC[C@H]2[C@@H]3CC[C@@H]4C[C@H](OC(C)=O)CC[C@]4(C)C3=CC[C@]12C`, the melting point was 122.1 to 123.9 °C.

Regarding `C[C@]12CCC(=O)C[C@H]1CC[C@H]1[C@@H]3CCC(=O)[C@@]3(C)CC[C@@]12O`, the melting point was in the range of 213 to 216 °C.

On to `C/C=C1/CC[C@H]2[C@@H]3CC[C@@H]4C[C@H](O)CC[C@]4(C)C3=CC[C@]12C`, for which the melting point lay in the range of 146 to 147.3 °C.

For the compound `COC(=O)CC[C@@H](C)[C@H]1CC[C@H]2[C@@H]3CC[C@@H]4C[C@H](OC(C)=O)CC[C@]4(C)[C@H]3CC(=O)[C@]12C`, the melting point is 142.2 to 144.4 °C.

`COC(=O)CC[C@@H](C)[C@H]1CC[C@H]2[C@@H]3CC[C@@H]4C[C@H](OC(C)=O)CC[C@]4(C)[C@H]3C[C@H](O)[C@]12C` showed a melting point of 104.2 to 107.7 °C.

On to `C/C=C1/CC[C@H]2[C@@H]3CC[C@@H]4C[C@H](OC(C)=O)CC[C@]4(C)C3=CC[C@]12C`, for which the melting point lay within 93.9 to 97.8 °C.

The next data set concerns Primary human adipocytes. Nature of the data set: MTS cell viability assay on primary human adipocytes. The data set is classed as cell-based. As to conditions: 0.005%-0.1% bile acid in serum-free media, incubated for 1 hour at 37° C., MTS read at 490 nm, FIG. 1. On the procedure:
Primary human adipocytes were incubated with varying concentrations of synthetic sodium deoxycholate synthesized using 9-HAD as starting material or bovine-derived sodium deoxycholate obtained from Sigma as described below.
96 well plates (US Scientific cat # cellstar no. 655180) Serum-free RPMI medium (Mediatech cat #17-105-CV) Sodium deoxycholate (DC) (Sigma cat # D6750) Synthetic Sodium glycodeoxycholate (Kythera)
Adipocytes arrived differentiated and at a density of 13,000 cells per well in a 96 well plate. Two plates were received and each treated with the same samples. Cells were incubated for 24 hours at 37° C. with 5% CO2. A 1% stock solution of each bile acid (synthetic and non-synthetic DCA) were made by dissolving 20 mg into 2 mL media (serum-free). Using the 1% stock solution, the following 11 solutions were prepared by dilution: 0.005%, 0.01%, 0.015%, 0.02%, 0.025%, 0.03%, 0.035%, 0.04%, 0.05%, 0.06%, and 0.1%, as well as 0% (media only).
Cells were washed 2× with 150 μL of room temperature 1×PBS (phosphate buffered saline). Media and then PBS were removed from the wells in a 96 well plate by turning the plate upside down and decanting the liquid into a container. After the last PBS wash, 80 μL of sample was added per well. […]
Cell viability was assessed using a colorimetric assay (MTS) kit from Promega.
In general terms: Formazan colour is commonly taken as a measure of viable cells.
In the case of sodium deoxycholate [syn-NaDC], the cell survival result is listed as “dose-dependent decrease in cell survival”.
